Data from PubChem BioAssay AID330 (DTP/NCI, 2004).
Several values for one entry are separate records, joined by “and”; a condition that tells them apart may be missing. Identical values can stand only once. Inconclusive results and toxic doses are left out.

Tested on: P388 leukemia ip, CD2F1 mice, survival T/C
Experiment: NCI In Vivo Anticancer Drug Screen. Data for tumor model P388 Leukemia (intraperitoneal) in CD2F1 (CDF1) mice
Conditions: endpoint: median survival time, higher = longer survival
Summary of the method: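 Mice carrying the transplanted tumor received test compound or vehicle. Survival was recorded in each group, and the value is the treated-group measurement divided by that of the vehicle-treated control group.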

[1] = dose: 6.25 mg/kg/injection, schedule: Q01DX009 (ip), vehicle: saline
[2] = dose: 12.5 mg/kg/injection, schedule: Q01DX009 (ip), vehicle: saline
[3] = dose: 25.0 mg/kg/injection, schedule: Q01DX009 (ip), vehicle: saline
[4] = dose: 50.0 mg/kg/injection, schedule: Q01DX009 (ip), vehicle: saline
[5] = dose: 100.0 mg/kg/injection, schedule: Q01DX009 (ip), vehicle: saline
[6] = dose: 25.0 mg/kg/injection, schedule: Q01DX009 (ip), vehicle: saline with Tween-80
[7] = dose: 200.0 mg/kg/injection, schedule: Q01DX009 (ip), vehicle: saline
[8] = dose: 100.0 mg/kg/injection, schedule: Q04DX002 (ip), vehicle: saline
[9] = dose: 50.0 mg/kg/injection, schedule: Q01DX009 (ip), vehicle: Klucel (hydroxypropylcellulose) (HPC)
[10] = dose: 100.0 mg/kg/injection, schedule: Q01DX009 (ip), vehicle: Klucel (hydroxypropylcellulose) (HPC)
[11] = dose: 200.0 mg/kg/injection, schedule: Q01DX009 (ip), vehicle: Klucel (hydroxypropylcellulose) (HPC)
[12] = dose: 100.0 mg/kg/injection, schedule: Q01DX009 (ip), vehicle: saline with Tween-80
[13] = dose: 100.0 mg/kg/injection, schedule: Q04DX002 (ip), vehicle: saline with Tween-80
[14] = dose: 12.5 mg/kg/injection, schedule: Q01DX005 (ip), vehicle: saline with Tween-80

For `COC(=O)C1(C(=O)OC)N=C(C)OO1`, the T/C [1] was 99 % of control and 97 % of control, the T/C [2] was 101 % of control and 107 % of control and the T/C [3] was 91 % of control and 97 % of control. The T/C [4] was 96 % of control and 97 % of control and the T/C [5] was 101 % of control.

`O=C1C(Cl)=C(Oc2ccccc2Cl)C(=O)C(Cl)=C1Oc1ccccc1Cl` was tested, and the T/C (dose: 3.12 mg/kg/injection, schedule: Q01DX005 (ip), vehicle: Klucel (hydroxypropylcellulose) (HPC)) was 91 % of control and 96 % of control, the T/C (dose: 6.25 mg/kg/injection, schedule: Q01DX005 (ip), vehicle: Klucel (hydroxypropylcellulose) (HPC)) was 98 % of control and 92 % of control and the T/C (dose: 12.5 mg/kg/injection, schedule: Q01DX005 (ip), vehicle: Klucel (hydroxypropylcellulose) (HPC)) was 86 % of control and 87 % of control and 97 % of control. The T/C (dose: 50.0 mg/kg/injection, schedule: Q01DX005 (ip), vehicle: Klucel (hydroxypropylcellulose) (HPC)) was 102 % of control, the T/C (dose: 100.0 mg/kg/injection, schedule: Q01DX005 (ip), vehicle: Klucel (hydroxypropylcellulose) (HPC)) was 99 % of control and the T/C (dose: 200.0 mg/kg/injection, schedule: Q01DX005 (ip), vehicle: Klucel (hydroxypropylcellulose) (HPC)) was 96 % of control.

With `Oc1c(Cl)cc(Cl)cc1C1Nc2ccccc2-n2cccc21` (stereo not drawn) the T/C (dose: 6.25 mg/kg/injection, schedule: Q01DX009 (ip), vehicle: saline with Tween-80) was 91 % of control, the T/C (dose: 12.5 mg/kg/injection, schedule: Q01DX009 (ip), vehicle: saline with Tween-80) was 96 % of control and the T/C [6] was 91 % of control.

With `COc1cc(CC(N)C(C)=O)cc(OC)c1OC` (stereo not drawn) the T/C [4] was 99 % of control, the T/C [5] was 100 % of control and the T/C [7] was 100 % of control.

In the case of `CC(C)c1cc(C=C2C(=O)c3ccccc3C2=O)cc(C(C)C)c1O`, the T/C [8] is reported as 100 % of control, the T/C (dose: 200.0 mg/kg/injection, schedule: Q04DX002 (ip), vehicle: saline) is reported as 100 % of control and the T/C (dose: 400.0 mg/kg/injection, schedule: Q04DX002 (ip), vehicle: saline) is reported as 97 % of control.

In the case of `NC(=O)CCCCCBr`, the T/C [9] is reported as 98 % of control, the T/C [10] is reported as 95 % of control and the T/C [11] is reported as 90 % of control.

For `COc1ccc(N=Nc2ccc(N(CCCl)CCCl)cc2)cc1`, the T/C (dose: 25.0 mg/kg/injection, schedule: Q01DX001 (ip), vehicle: Klucel (hydroxypropylcellulose) (HPC)) was 106 % of control, the T/C (dose: 50.0 mg/kg/injection, schedule: Q01DX001 (ip), vehicle: Klucel (hydroxypropylcellulose) (HPC)) was 108 % of control and the T/C (dose: 100.0 mg/kg/injection, schedule: Q01DX001 (ip), vehicle: Klucel (hydroxypropylcellulose) (HPC)) was 110 % of control.

With `CCOC(=O)C(=CNc1ccccc1)C(=O)OCC` the T/C [6] was 103 % of control, the T/C (dose: 50.0 mg/kg/injection, schedule: Q01DX009 (ip), vehicle: saline with Tween-80) was 100 % of control and the T/C [12] was 103 % of control. The T/C (dose: 200.0 mg/kg/injection, schedule: Q01DX009 (ip), vehicle: saline with Tween-80) was 100 % of control.

In the case of `CCCCCCCCC(CCc1ccccc1)CCc1ccccc1`, the T/C (dose: 50.0 mg/kg/injection, schedule: Q01DX001 (ip), vehicle: saline with Tween-80) is reported as 88 % of control and the T/C (dose: 200.0 mg/kg/injection, schedule: Q01DX001 (ip), vehicle: saline with Tween-80) is reported as 100 % of control.

`COCCOC1=C(N2CC2)C(=O)C(OCCOC)=C(N2CC2)C1=O` was tested, and the T/C (dose: 1.87 mg/kg/injection, schedule: Q01DX009 (ip), vehicle: saline) was 204 % of control, the T/C (dose: 2.2 mg/kg/injection, schedule: Q04DX003 (ip), vehicle: saline) was 113 % of control and the T/C (dose: 3.3 mg/kg/injection, schedule: Q04DX003 (ip), vehicle: saline) was 122 % of control. The T/C (dose: 3.75 mg/kg/injection, schedule: Q01DX009 (ip), vehicle: saline) was 118 % of control.

`CCOC(=O)C1=S=C(SCCO)N(C)C1=O` was tested, and the T/C [13] was 95 % of control, the T/C (dose: 200.0 mg/kg/injection, schedule: Q04DX002 (ip), vehicle: saline with Tween-80) was 103 % of control and the T/C (dose: 400.0 mg/kg/injection, schedule: Q04DX002 (ip), vehicle: saline with Tween-80) was 97 % of control.

For `Cc1ccc(O)c(C(NCCO)c2ccccc2)c1` (stereo not drawn), the T/C [8] was 102 % of control.

For `O=C(SCCO)SCCO`, the T/C [4] was 86 % of control, the T/C [5] was 89 % of control and the T/C [7] was 88 % of control.

`C/C=C(/C)C(=O)OC1CC(C)=CC(OC(=O)/C(C)=C\C)[C@]2(C)C1[C@](O)(C(C)C)C[C@H]2OC(C)=O` (stereo partly drawn) was tested, and the T/C (dose: 5.0 mg/kg/injection, schedule: Q01DX005 (ip), vehicle: Klucel + Tween-80) was 95 % of control, the T/C (dose: 10.0 mg/kg/injection, schedule: Q01DX005 (ip), vehicle: Klucel + Tween-80) was 97 % of control and the T/C (dose: 20.0 mg/kg/injection, schedule: Q01DX005 (ip), vehicle: Klucel + Tween-80) was 100 % of control. The T/C (dose: 40.0 mg/kg/injection, schedule: Q01DX005 (ip), vehicle: Klucel + Tween-80) was 91 % of control.

In the case of `Nc1ccn(CC(=O)c2ccc(Cl)s2)c(=O)n1`, the T/C (dose: 100.0 mg/kg/injection, schedule: Q04DX003 (ip), vehicle: water) is reported as 100 % of control, the T/C (dose: 200.0 mg/kg/injection, schedule: Q04DX003 (ip), vehicle: water) is reported as 100 % of control and the T/C (dose: 400.0 mg/kg/injection, schedule: Q04DX003 (ip), vehicle: water) is reported as 104 % of control.

`CC(C)c1ccc(/C=C/c2ccc(N(C)C)cc2)cc1` was tested, and the T/C (dose: 50.0 mg/kg/injection, schedule: Q01DX009 (sc), vehicle: olive oil, sesame oil, peanut oil) was 100 % of control, the T/C (dose: 100.0 mg/kg/injection, schedule: Q01DX009 (sc), vehicle: olive oil, sesame oil, peanut oil) was 100 % of control and the T/C (dose: 200.0 mg/kg/injection, schedule: Q01DX009 (sc), vehicle: olive oil, sesame oil, peanut oil) was 97 % of control.

For `NC(=S)c1ccc(C2Nc3ccccc3N2)cc1`, the T/C (dose: 25.0 mg/kg/injection, schedule: Q04DX002 (ip), vehicle: saline with Tween-80) was 95 % of control, the T/C (dose: 50.0 mg/kg/injection, schedule: Q04DX002 (ip), vehicle: saline with Tween-80) was 92 % of control and the T/C [13] was 87 % of control and 91 % of control.

With `CCCCCCCCCCCCCCCCCCOCC(COP(=O)([O-])OCC[N+](C)(C)C)OC` (stereo not drawn) the T/C (dose: 3.12 mg/kg/injection, schedule: Q01DX009 (ip), vehicle: saline) was 103 % of control, the T/C [1] was 109 % of control and the T/C [14] was 109 % of control. For the same compound, the T/C [2] was 107 % of control and 117 % of control, the T/C [3] was 122 % of control and 124 % of control and the T/C [4] was 88 % of control.

With `Cc1cc(S(=O)(=O)O)ccc1N=c1ccc2c(-c3ccccc3C(=O)O)c3ccc(Nc4ccccc4C)cc3oc-2c1` the T/C (dose: 50.0 mg/kg/injection, schedule: Q01DX005 (ip), vehicle: saline) was 88 % of control, the T/C (dose: 100.0 mg/kg/injection, schedule: Q01DX005 (ip), vehicle: saline) was 105 % of control and the T/C (dose: 200.0 mg/kg/injection, schedule: Q01DX005 (ip), vehicle: saline) was 91 % of control.

`C=CC(=O)NCNC(=O)C=C` was tested, and the T/C [12] was 172 % of control, the T/C (dose: 132.0 mg/kg/injection, schedule: Q04DX003 (ip), vehicle: saline with Tween-80) was 118 % of control and the T/C (dose: 200.0 mg/kg/injection, schedule: Q04DX003 (ip), vehicle: saline sonified) was 159 % of control. For the same compound, the T/C (dose: 300.0 mg/kg/injection, schedule: Q04DX003 (ip), vehicle: saline with Tween-80) was 181 % of control.

For `O=S(=O)(Cc1ccccc1)/N=C\c1ccc(Cl)cc1`, the T/C [9] was 95 % of control, the T/C [10] was 103 % of control and the T/C [11] was 104 % of control.

In the case of `NC(N)=N/N=C/c1c2ccccc2cc2ccccc12`, the T/C (dose: 6.25 mg/kg/injection, schedule: Q01DX005 (ip), vehicle: saline with Tween-80) is reported as 100 % of control and 101 % of control, the T/C [14] is reported as 107 % of control and 109 % of control and 121 % of control and the T/C (dose: 25.0 mg/kg/injection, schedule: Q01DX005 (ip), vehicle: saline with Tween-80) is reported as 104 % of control and 113 % of control and 121 % of control.

For `Nc1ccc(S(=O)(=O)n2c(=O)oc3ccc(Br)cc32)cc1`, the T/C (dose: 100.0 mg/kg/injection, schedule: Q04DX002 (ip), vehicle: Klucel (hydroxypropylcellulose) (HPC)) was 93 % of control, the T/C (dose: 200.0 mg/kg/injection, schedule: Q04DX002 (ip), vehicle: Klucel (hydroxypropylcellulose) (HPC)) was 90 % of control and the T/C (dose: 400.0 mg/kg/injection, schedule: Q04DX002 (ip), vehicle: Klucel (hydroxypropylcellulose) (HPC)) was 93 % of control.
